# Results taken from patent US20160000126A1, “MODULATION OF SALTY TASTE […] ALTERING THE FUNCTION OF BITTER- OR PKD2L1-[…] RECEPTOR CELLS” (THE TRUSTEES OF COLUMBIA UNIVERSITY IN THE CITY OF NEW YORK, priority 2013, published 2016).
# How the values were obtained:
# [1] = tested on: bitter taste receptor cells / high-salt sensing pathway; assay: chorda tympani nerve recordings before and after AITC application to the tongue; format: in vivo, mice
# Description: Lingual stimulation and recording procedures were performed as previously described (Chandrashekar et al. (2010); Nelson et al. (2002)). Data analysis used the integrated response during the 5 seconds of tastant stimulation.
# Responses to 20 mM citric acid (FIGS. 2 and 3), 60 mM NaCl (FIG. 8, 12, and 13), or 250 mM KCl before AITC application (FIG. 13) were used to normalize responses for each experimental series. For FIG. 7, data were normalized to 20 mM citric acid and then scaled to WT responses before AITC application. Data were analyzed for statistical significance using an unpaired, one-tailed Student's t-test and 95% confidence limits.
# To compute the amiloride-sensitive salt component, the stimulation regime involved sequential applications of NaCl solutions first without, and then with, amiloride (5 seconds pre- or pre- and post-incubation and co-application with NaCl solution) in the same experimental series. The amiloride-insensitive component was defined as the response in the presence of amiloride. The fraction of the response inhibited by amiloride was defined as the amiloride-sensitive component (amiloride-sensitive component=response without amiloride−response with amiloride).
# For pharmacological inhibition studies using allyl isothiocyanate (AITC), responses to a series of taste stimuli were measured. Then 3 mM AITC (Aldrich, 377430-5G) was applied to the tongue at a rate of 6 ml/minute for 5 minutes. The tongue was washed with artificial saliva for 1 minute and nerve responses to the same series of taste stimuli measured. Responses before and after AITC were compared for each animal. To minimize effects of recovery, responses after AITC were recorded within 15 minutes of AITC treatment.
# [2] = tested on: T2R32-Sapphire positive taste cells; assay: calcium imaging of fungiform taste receptor cells; format: cell-based; details: T2R32-Sapphire mice; for response of T2R32-Sapphire positive taste cells to stimulus: 500 mM KCl (high-salt), 100 mM citric acid (sour)
# Description: Calcium imaging from fungiform TRCs was performed as previously described (Chandrashekar et al. (2010); Oka et al. (2006)).
# Fungiform TRCs were loaded in vivo with Calcium Green-1 dextran 3 kD (Invitrogen) by electroporating individual taste buds. Tongues were removed 24-36 hours after dye loading, and the epithelium was peeled enzymatically and placed in a custom recording chamber. The apical surface of the preparation was bathed in a constant flow of artificial saliva, and taste stimuli were delivered by focal application to individual taste buds. Tastants were applied for 1 second, with a minimum of 10 seconds of artificial saliva between stimuli. Changes in [Ca2+]i were monitored using a 5-Live confocal microscope (Zeiss) equipped with a ×40 C-Apochromat 1.20 W objective; images were captured at 4 Hz, and ΔF/F from individual TRCs analyzed and pseudo-colored as described previously (Chandrashekar et al. (2010)).
# To identify sapphire positive cells in T2R32-Sapphire mice, 405-nm excitation laser to separate sapphire and Calcium Green-1 fluorescence was used. Mean cellular fluorescence intensity (F) was calculated for the individual TRCs and basal fluorescence (Fo) was assigned to each cell by averaging fluorescence intensity over 3 seconds just before tastant application. ΔF/F was calculated as [F−Fo]/Fo; taste cells were considered responders when ΔF/F exceeded 3 standard deviations above Fo within 5 seconds of tastant application.
# [3] = target: CA4 (Mus musculus, UniProt Q64444); details: TRPM5-KO mice; before and after addition of 30 mM KHCO3 (pH7.4)
# CA4, sequence (Q64444 18-277): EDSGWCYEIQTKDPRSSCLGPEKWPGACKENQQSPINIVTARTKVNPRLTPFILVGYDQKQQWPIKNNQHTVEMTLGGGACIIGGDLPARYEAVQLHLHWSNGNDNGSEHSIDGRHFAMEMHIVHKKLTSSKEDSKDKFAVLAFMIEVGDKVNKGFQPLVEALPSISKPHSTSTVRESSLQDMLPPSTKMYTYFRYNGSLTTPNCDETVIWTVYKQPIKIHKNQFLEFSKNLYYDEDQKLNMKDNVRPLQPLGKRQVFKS
# [4] = tested on: tongue carbonic anhydrases; assay: chorda tympani nerve recordings before and after DZA treatment of the tongue; format: in vivo, mice
# [5] = control and T2R-PLC rescue animals, AITC treatment
smiles,measurement,setting,value
"C=CCN=C=S [AITC, allyl isothiocyanate]",chorda tympani responses to high concentration of bitter tastant cycloheximide,"[1]; 1 mM cycloheximide, 1 and 30 minutes after AITC treatment",strongly suppresses
same,chorda tympani responses to other bitter tastants,"[1]; 10 mM denatonium and 10 mM quinine, after AITC treatment",suppressed
same,chorda tympani response to sour taste,"[1]; 20 mM citric acid, after AITC treatment",remained unimpaired
same,taste response evoked by AITC itself,[1]; 5 minutes exposure of the tongue to 3 mM AITC,minimal taste response
same,fraction of high-salt neural responses eliminated,"[1]; AITC treatment, FIG. 7",about 50%
same,remaining high-salt (KCl) responses in PKD2L1-TeNT mice,"[1]; PKD2L1-TeNT mice, further treatment with AITC",effectively abolished
same,bitter and high-salt taste responses in TRPA1-KO mice,"[1]; TRPA1-KO mice, with and without AITC",robust AITC-mediated suppression
same,nerve responses to high salt in TRPM5 and PLCβ2 knockout mice,"[1]; TRPM5-KO and PLCβ2-KO mice, before and after AITC",no longer sensitive
same,chorda tympani responses to 0.1 mM cycloheximide,[1]; [5],almost completely suppressed
same,chorda tympani responses to 500 mM KCl and 500 mM NaCl in the presence of 10 μM amiloride,[1]; [5],reduced by half
same,chorda tympani bitter responses,"[1]; wild type mice, 0.1 mM cycloheximide, after 3 mM AITC",completely inhibited
same,chorda tympani responses to low salt,"[1]; wild type mice, 60 mM NaCl, after 3 mM AITC",did not affect
same,chorda tympani responses to high-salt,"[1]; wild type mice, 250 or 500 mM NaCl + amiloride and KCl, after 3 mM AITC for 5 minutes",significantly suppressed
same,chorda tympani responses to KCl (selectively activates the high-salt pathway),"[1]; wild type mice, after 3 mM AITC",Identical suppression
same,chorda tympani responses to other taste qualities,"[1]; wild type mice, sour, sweet, umami tastants, after 3 mM AITC",did not affect
O=C(O)CC(O)(CC(=O)O)C(=O)O [citric acid],response of T2R32-Sapphire positive taste cells to stimulus,[2],not
O=C(O)O [KHCO3],chorda tympani responses to 500 mM KCl or 100 mM CaCl2 (PKD2L1-cell mediated high-salt responses),[3],strong inhibition
"CCN[C@H]1C[C@H](C)S(=O)(=O)c2sc(S(N)(=O)=O)cc21 [DZA, dorzolamide]",taste responses from PKD2L1-TeNT mice,"[4]; PKD2L1-TeNT mice, various salts, 0.5% w/v DZA",completely insensitive
same,sour and low salt taste responses,"[4]; TRPM5-KO mice, 20 mM citric acid, 60 mM NaCl, 0.5% w/v DZA",insensitive
same,CO2 chorda tympani responses,"[4]; TRPM5-KO mice, 0.5% w/v DZA",affected
same,high-salt induced chorda tympani responses from sour taste cells,"[4]; TRPM5-KO mice, 0.5% w/v DZA for 5 minutes",reduced
"[Cl-].[K+] [KCl, potassium chloride]",number of Sapphire-positive cells activated,[2]; 500 mM KCl,12 cells
same,response of T2R32-Sapphire positive taste cells to stimulus,[2],responded
